Laboratory results: US10172911B2, “Methods of modulating erythropoiesis with arginine vasopressin receptor 1B molecules” (The United States of America, as represented by the …, priority 2013, dated 2019)
“Also recorded” adds a separate entry of the source.

How the values were obtained:
[1] = tested on: mice; assay: Sublethal irradiation anemia model; format: in vivo, mouse
Protocol: Mice were irradiated with 4.5 Grays, and 24 hours later mice were implanted with ALZET micro-osmotic pumps as described above to deliver AVP or vehicle. Mice were treated with Trimethoprim and Sulfamethoxazole (Bactrim, Septra) for 7 days before irradiation and continued the treatment for 4 weeks after irradiation. Using a pediatric formulation, the stock concentration contains 40 mg/5 ml Trimethoprim and 200 mg/5 ml Sulfa, so that the treated drinking water will deliver 0.13 mg/ml trimethoprim and 0.67 mg/ml sulfa to the mice.

[2] = tested on: WT mice; assay: AVP infusion in unmanipulated WT mice; format: in vivo, mouse; settings: infused over a 3 week period
[3] = tested on: human CD34+ hematopoietic progenitors; assay: Intracellular Ca2+ measurement in Fura-2 loaded human CD34+ hematopoietic progenitors; format: cell-based; settings: human CD34+ cells, agonist stimulation
Protocol: Human BMSCs were loaded with Fura-2 and the cells were stimulated with AVP, or OXT. Intracellular Ca^2+ concentration was assayed as described before (Ely, J. A. et al. J Biol Chem 266, 18635-18641 (1991). To study their response to AVP and specific AVP receptor agonists and antagonists human CD34+ hematopoietic progenitors were Fura-2 loaded and Cytoplasmic Ca2+ measurements were performed in cells kept in suspension using a fluorescence spectrophotometer (Deltascan, Photon Technology International). Ratiometric measurements were recorded at 340/380 nm excitation and 500 nm emission and the ratios were plotted against time. Ionomycin (10 μM) was added at the end of each run to determine the maximum fluorescence ratio.

[4] = tested on: CD34^+ human hematopoietic progenitor cells; assay: cAMP measurement in CD34+ human hematopoietic progenitor cells; format: cell-based; settings: AVP 10^−10 M vs non-stimulated cells
Description: For cAMP measurements in CD34^+ human hematopoietic progenitor cells derived from two donors. The cAMP femto 2 kit (Cat#62AM5PEB, Cisbio) was used according to manufacturers instructions. The measurements were done on a Wallac Victor2 1420 multilabel counter (Perkin Elmer).

[5] = tested on: mouse bone marrow LSK cells; assay: BrdU cell proliferation assay, sorted mouse bone marrow LSK cells; format: cell-based; settings: 10^−8M-10^−14M, 2 days culture
Protocol: (§1) Sorted mouse bone marrow LSK cells (10000 cells/well) were plated in a 96 well plate in Stemspan serum free expansion medium ([…] Technologies, Vancouver, Canada) with Pen/Strep, and the following hematopoietic factors: 100 ng/ml TPO, 50 ng/ml FLT3L, 50 ng/ml IL-3 and SCF 100 ng/ml (Peprotech, Rocky Hill, N.J.). Cells were treated with […] (Sigma-Aldrich, St. Louis, Mo.). When using human CD34^+ cells (5000 cells/well), human SCF, TPO, FLT3L and G-CSF (Peprotech, each at 50-100 ng/ml) were added to the Stemspan medium. Cells were treated with 10^−8M-10^−14M AVP. After 24 hours, BrdU at a 1:1000 concentration was added to the cultures and incorporation of BrdU was measured using the Cell Proliferation ELISA BrdU kit (Roche, Mannheim, Germany) after another 24 hours of incubation.

[6] = tested on: mice; assay: EPO neutralization study in hemorrhage; format: in vivo, mouse
Protocol: To infuse vasopressin into the mice, AVP filled ALZET pumps were implanted subcutaneously on the dorsal aspect of the neck (5 ug/day, Alzet 1007D—7 days, 2002-14 days). Vasopressin was also given immediately and 6 hours later as a bolus injection (100 μg/kg). Alzet pumps were inserted subcutaneously. The dimensions and pump specification are: ALZET, (DURECT Corporation, Cupertino, Calif., USA) mini-osmotic pump models 1007D or 2002. The pumps deliver 0.5 μl/h of the desired substance for a for 2-week period. In some cases, erythropoietin antibody (100 μg/mice) was given before anesthesia with the corresponding control antibody. […] Following the initial hemorrhage blood samples were taken at 2, 4 and in some cases 6 days later to determine hematocrit and corrected reticulocyte values.
In some cases Erythropoietin antibody (100 μg/mice) was given before anesthesia with the corresponding control antibody.

[7] = tested on: human CD34^+ cells; assay: BrdU cell proliferation assay, human CD34+ cells; format: cell-based
Protocol: as §1

## NC(=O)CC[C@@H]1NC(=O)[C@H](Cc2ccccc2)NC(=O)[C@H](Cc2ccc(O)cc2)NC(=O)[C@@H](N)CSSC[C@@H](C(=O)N2CCC[C@H]2C(=O)N[C@@H](CCCN=C(N)N)C(=O)NCC(N)=O)NC(=O)[C@H](CC(N)=O)NC1=O [AVP, [Arg8]-Vasopressin]
[1]; sublethal irradiation, day 2 and day 4
  outcome measures (hematocrit, corrected reticulocytes): significantly improved outcome measures on day 2 and to some extent on day 4
[1]; sublethally irradiated mice
  hematocrit and reticulocyte numbers: rapid elevations in hematocrit and reticulocyte numbers
[2]
  RBC numbers: gradually increased RBC numbers
[3]
  intracellular calcium levels: increases in their intracellular calcium levels; also recorded: increase in intracellular calcium; also recorded: increased intra-cellular Ca^2+ concentrations
[4]
  cAMP in human CD34+ progenitors: moderate increase in cAMP
[5]
  proliferation (BrdU incorporation) of mouse LSK cells: induced proliferation; also recorded: stimulated LSK proliferation; also recorded: significantly increased the proliferation
[6]; EPO neutralized group, day 6
  CR numbers: began to increase CR numbers
[6]; EPO neutralized, day 4
  CR values over PBS: eliminated this difference
[6]; after EPO neutralization, hemorrhage
  hematocrit values: significantly increased hematocrit values
[6]; control mice, day 4 and 6
  CR values over PBS: increased the CR values over PBS
[6]; day 2
  corrected reticulocyte (CR) values, EPO neutralized or control groups, AVP or PBS: no significant difference
[7]
  proliferation (BrdU) of human CD34+ cells / HSPCs: induced proliferation; also recorded: significantly increased the proliferation
